Assay results reported in paper PMC8221158, “Novel pyrrolizines bearing 3,4,5-trimethoxyphenyl moiety: design, synthesis, molecular docking, and biological evaluation as potential multi-target cytotoxic agents” (Journal of Enzyme Inhibition and Medicinal Chemistry, 2021).

Tests used:
CDK-2 = biological target: T1, CDK-2 (Homo sapiens, UniProt P24941); parameters: method as in PMID 17064068; settings: read-out: IC50 against CDK-2; cited from earlier work
T1 construct: purchased Promega, Madison, WI

Aurora A = biological target: T2, Aurora A (Homo sapiens, UniProt O14965); assay: Kinase profiling test; assay type: biochemical; settings: stated as inhibition
T2 sequence (O14965 1-403): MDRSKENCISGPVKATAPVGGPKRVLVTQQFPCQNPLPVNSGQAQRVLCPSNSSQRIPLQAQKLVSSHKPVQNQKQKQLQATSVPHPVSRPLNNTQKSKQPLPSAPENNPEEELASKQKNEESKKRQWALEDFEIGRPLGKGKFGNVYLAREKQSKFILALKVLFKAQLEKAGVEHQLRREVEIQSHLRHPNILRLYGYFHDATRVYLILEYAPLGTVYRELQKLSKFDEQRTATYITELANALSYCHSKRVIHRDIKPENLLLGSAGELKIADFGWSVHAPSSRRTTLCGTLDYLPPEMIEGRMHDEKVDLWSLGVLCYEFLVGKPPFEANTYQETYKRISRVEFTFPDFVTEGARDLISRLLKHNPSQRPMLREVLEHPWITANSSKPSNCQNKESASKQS
Procedure: The test was performed using the radiolabeled ATP determination method (KINEXUS Bioinformatics Corporation, Vancouver, Canada). The test was performed following the previous reports[13]^,[20].
The three compounds were tested at the same concentration (10 μM) against the same 20 kinases used in the previous report. The test was performed by KINEXUS Bioinformatics Corporation (Vancouver, Canada), following previous reports[13]^,[20].

[1] = test system: MCF-7, HCT116, and A2780 cancer cell lines; assay: MTT assay, three cancer cell lines taken together (average, overall range); assay type: cell-based, human; settings: Homo sapiens; MCF-7, HCT116, A2780; read-out: Average of the three IC50 values against the three cancer cell lines
MCF-7 = settings: MTT, 72 h; read-out: IC50 (µM ± SD) MCF-7; cited from earlier work
A2780 = settings: MTT, 72 h; read-out: IC50 (µM ± SD) A2780; cited from earlier work
normal MRC-5 cells = test system: normal MRC-5 cells; parameters: method as in PMID 31655429; settings: 72 h; read-out: IC50 (µM ± SD) MRC-5; cited from earlier work
MCF-7 cells = test system: MCF-7 cells; parameters: method as in PMID 31655429; settings: 1 µM, 24 h; control 17.3%; cited from earlier work
20 kinases = test system: 20 kinases; parameters: method as in PMID 31655429; settings: ALK1, CDK-2/cyclin A1, DYRK3, GSK3 alpha, NEK1; cited from earlier work
porcine tubulin = biological target: T3, porcine tubulin (Sus scrofa, UniProt P02550+P02554); assay: Tubulin polymerisation fluorescence-based assay; assay type: biochemical
T3 construct: purchased Cytoskeleton Inc., Denver, CO BK011P
T3 sequence (P02550 whole entry): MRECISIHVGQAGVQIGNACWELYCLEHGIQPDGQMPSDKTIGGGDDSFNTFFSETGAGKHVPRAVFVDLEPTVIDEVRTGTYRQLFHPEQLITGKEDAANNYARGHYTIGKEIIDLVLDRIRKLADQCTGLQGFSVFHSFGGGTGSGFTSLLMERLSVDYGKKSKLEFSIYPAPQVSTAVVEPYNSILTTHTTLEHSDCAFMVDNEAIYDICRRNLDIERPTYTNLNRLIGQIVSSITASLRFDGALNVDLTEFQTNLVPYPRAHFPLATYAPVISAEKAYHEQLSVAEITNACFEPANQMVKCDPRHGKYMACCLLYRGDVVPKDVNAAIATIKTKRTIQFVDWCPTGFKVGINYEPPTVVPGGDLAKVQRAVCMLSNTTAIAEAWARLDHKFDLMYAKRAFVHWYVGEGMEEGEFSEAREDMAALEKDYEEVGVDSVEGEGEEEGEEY
T3 sequence (P02554 whole entry): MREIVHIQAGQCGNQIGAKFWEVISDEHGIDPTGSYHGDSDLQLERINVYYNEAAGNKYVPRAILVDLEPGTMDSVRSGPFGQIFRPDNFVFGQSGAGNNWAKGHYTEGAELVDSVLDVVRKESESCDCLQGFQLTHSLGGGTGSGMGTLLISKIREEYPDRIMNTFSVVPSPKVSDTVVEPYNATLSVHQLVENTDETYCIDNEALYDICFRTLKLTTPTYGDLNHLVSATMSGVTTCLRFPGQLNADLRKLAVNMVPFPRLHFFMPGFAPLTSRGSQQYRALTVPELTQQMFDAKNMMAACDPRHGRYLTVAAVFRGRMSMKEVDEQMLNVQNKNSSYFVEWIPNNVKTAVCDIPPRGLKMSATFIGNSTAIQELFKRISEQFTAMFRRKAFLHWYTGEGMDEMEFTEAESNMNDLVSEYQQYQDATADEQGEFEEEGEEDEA
Procedure: The effect of compounds 16a,b,d on tubulin polymerisation was measured in vitro using tubulin polymerisation fluorescence-based assay (cytoskeleton, cat. BK011P, https://www.cytoskeleton.com/bk011p). The assay was performed following the previous report[22] and according to the manufacturer’s instructions. Briefly, 2 mg/mL porcine tubulin was dissolved in buffer 1 (80 mM PIPES, 2 mM MgCl2, 0.5 mM EGTA pH 6.9, 10 µM fluorescent reporter, 1 mM GTP, 15% glycerol) to a final concentration of […]. Then tubulin solution was transferred to a pre-warmed 96-well plate that contained the test compounds 16a,b,d (5 μM), paclitaxel (3 μM), CaCl2 (0.5 μM), and control buffer. The polymerisation of tubulin was monitored as fluorescence at 37 °C for 60 min. Relative fluorescence units (RFU) were determined at 360 nm for excitation and at 460 nm for emission using the Varioskan Flash spectral scanning multimode reader (Thermo Fisher Scientific, Roskilde, Denmark) at a reading speed of 1 cycle/min.
In the current study, the new compounds were designed bearing the trimethoxy phenyl moiety aiming to obtain new cytotoxic agents that can interfere with tubulin polymerisation in cancer cells. […] In this assay, light scattering by microtubules which is directly proportional to the concentration of the microtubule polymer was used as a measure of tubulin polymerisation. The study was performed using a fluorescence-based tubulin polymerisation assay kit (Cytoskeleton Inc., Denver, CO; Cat # BK011P) following the manufacturer’s instructions (https://www.cytoskeleton.com/bk011p) and according to the previous report.
Paclitaxel (3 μM) was used as a tubulin polymerisation enhancer (positive control, enhancer), while calcium chloride (CaCl2, 0.5 μM) was used as a positive control (inhibitor) as per the manufacturer’s instructions (https://www.cytoskeleton.com/pdf-storage/datasheets/bk011p.pdf). The vehicle was also used to evaluate the polymerisation when tubulin is incubated in the absence of the test compound. The effect of the selected compounds (5 μM) on tubulin polymerisation was evaluated and compared with those of the positive control. The results are represented in Figure 8.

VEGFR-2 = test system: VEGFR-2; parameters: method as in PMID 24890652; settings: cited from earlier work
tubulin assembly = test system: tubulin assembly; parameters: method as in PMID 24890652; settings: cited from earlier work
HDAC1 = settings: cited from earlier work
HDAC2 = settings: cited from earlier work
HDAC3 = settings: cited from earlier work
[2] = test system: a panel of cancer cell lines; settings: read-out: cytotoxic activity IC50; cited from earlier work

Question: For `Nc1n[nH]c(N)c1/N=N/c1ccc(O)cc1` [CAN508, 4-[(E)-(3,5-diamino-1H-pyrazol-4-yl)diazenyl)phenol], which IC50 (CDK-2) is on record?
Answer: 3500 nM

Question: With `Cc1ccc(NC(=O)c2ccc(CN3CCN(C)CC3)cc2)cc1Nc1nccc(-c2cccnc2)n1` [Imatinib, reference compound] as the compound, how does the inhibition at 10 µM (Aurora A) read?
Answer: 38%

Question: Which IC50 [1] does the source give for `CC(C)C/C=N/c1c(C#N)c2n(c1C(=O)Nc1ccc(Br)cc1)CCC2` [9a] here?
Answer: 310 nM

Question: What about the IC50 (MCF-7) of the same compound?
Answer: 0.1 ± 0.05 µM

Question: What about the IC50 (A2780) of the same compound?
Answer: 0.52 ± 0.02 µM

Question: What about the IC50 (normal MRC-5 cells) of the same compound?
Answer: 25.8 ± 0.73 µM

Question: What about the “Cell cycle S phase %” value (MCF-7 cells) of the same compound?
Answer: 55.6%

Question: And the “inhibition% over the inhibited kinases of the panel” value (20 kinases)?
Answer: 3–25%

Question: With `CC(=O)O[C@H]1C(=O)[C@@]2(C)[C@H]([C@H](OC(=O)c3ccccc3)[C@]3(O)C[C@H](OC(=O)[C@H](O)[C@@H](NC(=O)c4ccccc4)c4ccccc4)C(C)=C1C3(C)C)[C@]1(OC(C)=O)CO[C@@H]1C[C@@H]2O` [paclitaxel, reference compound] as the compound, how does the “effect on tubulin polymerisation” value (porcine tubulin; 3 μM, positive control (enhancer)) read?
Answer: eliminated the nucleation phase I and enhanced the growth phase II

Question: Which IC50 [1] does the source give for `N#Cc1c(/N=C/c2ccccc2)c(C(=O)Nc2ccc(Br)cc2)n2c1CCC2` [9b] here?
Answer: 2330 nM

Question: What about the IC50 (MCF-7) of the same compound?
Answer: 0.5 ± 0.15 µM

Question: What about the IC50 (A2780) of the same compound?
Answer: 4.16 ± 1.27 µM

Question: What about the IC50 (normal MRC-5 cells) of the same compound?
Answer: 9 ± 0.13 µM

Question: Which IC50 (VEGFR-2) does the source give for `COc1ccc(N(C)c2nc(C)nc3oc(C)cc23)cc1` [compound 7] here?
Answer: […]

Question: And the IC50 (tubulin assembly)?
Answer: 1.9 nM

Question: For `[Ca+2].[Cl-].[Cl-]` [CaCl2, calcium chloride, reference compound], which “effect on tubulin polymerisation” value (porcine tubulin; 0.5 μM, positive control (inhibitor)) is on record?
Answer: inhibited tubulin polymerisation and reduced the final polymer mass

Question: With `COc1cc2c(c(OC)c1OC)-c1ccc(OC)c(=O)cc1[C@@H](NCc1ccc(C(=O)Nc3ccccc3N)cc1)CC2` [compound 8] as the compound, how does the IC50 (HDAC1) read?
Answer: 12500 nM

Question: And the IC50 (HDAC2)?
Answer: 6730 nM

Question: And the IC50 (HDAC3)?
Answer: 11200 nM

Question: What about the IC50 [2] of the same compound?
Answer: 2 to 105 nM
